The assay deals with microorganisms. Description: Morphology, biofilm and growth disruption by peptides (Table 5). More on the design: key: A: Peptide aggregates; B: Less hyphal formation; Clumps; Diffuse clumps and small polyps; F: Diffuse growth; H: Thin; I: Growth inhibition; Microcolony formation; Rippled; Small polyps; Thick; W: Halo formation on top, microlonies on bottom. The format is cell-based. From the text:
In certain embodiments peptides that induce alterations in phenotype or other biological activities can also be used as antimicrobial effector moieties.

25 substances from patent publication US9597407B2, “Targeted antimicrobial moieties” (C3 Jian, Inc., priority 2009, dated 2017) can be followed below.

Ends that are not written are not given here.

On to “PF-455 (MARNDDDIKKIKGTLGQSPEVYGERKLPYT; Peptide with targeting and/or antimicrobial activity)”, for which the “Organism, effect (morphology, biofilm and growth disruption)” value (S. pneumoniae) is reported as “S. pneumoniae (A)”.

With “PF-468 (EDNKDKKDKKDK; Peptide with targeting and/or antimicrobial activity)”, the “Organism, effect (morphology, biofilm and growth disruption)” value (S. pneumoniae) was “S. pneumoniae (H)”.

Consider “PF-485 (KNSMSRSIALID; Peptide with targeting and/or antimicrobial activity)”, for which the “Organism, effect (morphology, biofilm and growth disruption)” value (S. pneumoniae) is recorded as “S. pneumoniae (A)”.

For the substance “PF-516 (ASKQASKQASKQASKQ; Peptide with targeting and/or antimicrobial activity)”, the “Organism, effect (morphology, biofilm and growth disruption)” value (S. pneumoniae) is given as “S. pneumoniae (H)”.

As for “PF-532 (KFIYKYKLSFIIYKILIQTLTMELNK; Peptide with targeting and/or antimicrobial activity)”, the “Organism, effect (morphology, biofilm and growth disruption)” value reads like this: (E. coli) “E. coli (C)”; (E. faecalis) “E. faecalis (C)”; (MRSA) “MRSA (C)”; (S. pneumoniae) “S. pneumoniae (C)”.

Regarding PF-534 (KYFHLFYHNIIHYSKQHLSLKVDFKN-NH2), the “Organism, effect (morphology, biofilm and growth disruption)” value is on record as “E. coli (R)” (E. coli); “E. faecalis (C)” (E. faecalis); “MRSA (C)” (MRSA); “S. epidermidis (C)” (S. epidermidis); “S. pneumoniae (R)” (S. pneumoniae).

With “PF-535 (NIKTRKRALKIIKQHQRSK; Peptide with targeting and/or antimicrobial activity)”, the “Organism, effect (morphology, biofilm and growth disruption)” value (P. aeruginosa) is listed as “P. aeruginosa (H)”; the “Organism, effect (morphology, biofilm and growth disruption)” value (S. pneumoniae) is given as “S. pneumoniae (H)”.

Turning to “PF-536 (MEPIPHIMIIANQIGIIIEKA; Peptide with targeting and/or antimicrobial activity)”, the “Organism, effect (morphology, biofilm and growth disruption)” value reads like this: (E. coli) “E. coli (R)”; (E. faecalis) “E. faecalis (C)”; (MRSA) “MRSA (C)”; (P. aeruginosa) “P. aeruginosa (H)”; (S. epidermidis) “S. epidermidis (C)”; (S. pneumoniae) “S. pneumoniae (M)”.

“PF-541 (RRNLNSPNIKTRKRALKIIKQHQRSK; Peptide with targeting and/or antimicrobial activity)”: the “Organism, effect (morphology, biofilm and growth disruption)” value runs as follows: (E. coli) “E. coli (H)”; (S. pneumoniae) “S. pneumoniae (H)”.

Consider “PF-561 (ESLEADVQAELDTEAAKYPALPASF; Peptide with targeting and/or antimicrobial activity)”, for which the “Organism, effect (morphology, biofilm and growth disruption)” value is on record as “B. subtilis (D)” (B. subtilis) and “MRSA (M)” (MRSA).

Turning to “PF-565 (RAEAEAQRQAEADAKRKAEEAARL; Peptide with targeting and/or antimicrobial activity)”, the “Organism, effect (morphology, biofilm and growth disruption)” value by setting is: (B. subtilis) “B. subtilis (D)”; (MRSA) “MRSA (C)”.

As to “PF-571 (SDLLYYPNENREDSPAGVVKEVKE; Peptide with targeting and/or antimicrobial activity)”, the “Organism, effect (morphology, biofilm and growth disruption)” value (B. subtilis) is reported as “B. subtilis (D)”.

For “PF-574 (LVKSGKLESPYEHSEHLTLSQEKGLE; Peptide with targeting and/or antimicrobial activity)”, the “Organism, effect (morphology, biofilm and growth disruption)” value (B. subtilis) is reported as “B. subtilis (D)”.

Regarding “PF-581 (WTARARR; Peptide with targeting and/or antimicrobial activity)”, the “Organism, effect (morphology, biofilm and growth disruption)” value reads like this: (C. jejuni) “C. jejuni (A)”; (E. faecalis) “E. faecalis (A)”; (MRSA) “MRSA (A)”; (S. pneumoniae) “S. pneumoniae (A)”.

“PF-582 (NLKTIEKECPFCNNKMDIKLKD; Peptide with targeting and/or antimicrobial activity)”: the “Organism, effect (morphology, biofilm and growth disruption)” value (E. faecalis) is on record as “E. faecalis (A)”.

Consider “PF-586 (FFNQANYFFKEF; Peptide with targeting and/or antimicrobial activity)”, for which the “Organism, effect (morphology, biofilm and growth disruption)” value is, setting by setting: (C. jejuni) “C. jejuni (D)”; (E. coli) “E. coli (C)”; (E. faecalis) “E. faecalis (D)”; (MRSA) “MRSA (D)”; (S. epidermidis) “S. epidermidis (C)”; (S. pneumoniae) “S. pneumoniae (D)”.

As for “PF-592 (IMKNYKYFKLFIVKYALF; Peptide with targeting and/or antimicrobial activity)”, the “Organism, effect (morphology, biofilm and growth disruption)” value (C. jejuni) is given as “C. jejuni (S)”; the “Organism, effect (morphology, biofilm and growth disruption)” value (E. coli) is reported as “E. coli (C)”; the “Organism, effect (morphology, biofilm and growth disruption)” value (E. faecalis) is recorded as “E. faecalis (D)”; the “Organism, effect (morphology, biofilm and growth disruption)” value (MRSA) is listed as “MRSA (D)”; the “Organism, effect (morphology, biofilm and growth disruption)” value (S. epidermidis) is “S. epidermidis (M)”; the “Organism, effect (morphology, biofilm and growth disruption)” value (S. pneumoniae) is “S. pneumoniae (D)”.

For “PF-595 (LQNKIYELLYIKERSKLCS; Peptide with targeting and/or antimicrobial activity)”, the “Organism, effect (morphology, biofilm and growth disruption)” value is, setting by setting: (C. jejuni) “C. jejuni (D)”; (E. coli) “E. coli (C)”; (E. faecalis) “E. faecalis (D)”; (MRSA) “MRSA (D)”; (S. epidermidis) “S. epidermidis (C)”; (S. pneumoniae) “S. pneumoniae (R)”.

Turning to “PF-605 (HYRWNTQWWKY; Peptide with targeting and/or antimicrobial activity)”, the “Organism, effect (morphology, biofilm and growth disruption)” value by setting is: (C. albicans) “C. albicans (B)”; (C. jejuni) “C. jejuni (R)”; (E. coli) “E. coli (C)”; (E. faecalis) “E. faecalis (R)”; (MRSA) “MRSA (C)”; (P. aeruginosa) “P. aeruginosa (A)”. Moreover, the “Organism, effect (morphology, biofilm and growth disruption)” value reads like this: (S. epidermidis) “S. epidermidis (R)”; (S. pneumoniae) “S. pneumoniae (D)”.

Consider “PF-610 (VFLKLKTSKIDLASIIFYP; Peptide with targeting and/or antimicrobial activity)”, for which the “Organism, effect (morphology, biofilm and growth disruption)” value is “C. jejuni (D)” (C. jejuni); “E. coli (C)” (E. coli); “E. faecalis (D)” (E. faecalis); “MRSA (D)” (MRSA); “S. epidermidis (C)” (S. epidermidis); “S. pneumoniae (D)” (S. pneumoniae).

With “PF-612 (GTTLKYGLERQLKIDIHPEITIINLNGGADEFAKL; Peptide with targeting and/or antimicrobial activity)”, the “Organism, effect (morphology, biofilm and growth disruption)” value is, setting by setting: (E. coli) “E. coli (C)”; (M. luteus) “M. luteus (A)”; (MRSA) “MRSA (C)”; (P. mirabilis) “P. mirabilis (C)”; (S. epidermidis) “S. epidermidis (C)”; (S. mutans) “S. mutans (F)”. The “Organism, effect (morphology, biofilm and growth disruption)” value (S. pneumoniae) is given as “S. pneumoniae (C)”.

For “PF-615 (FLNRFIFYIFTVKTKSALIKNLFLD; Peptide with targeting and/or antimicrobial activity)”, the “Organism, effect (morphology, biofilm and growth disruption)” value is given as “C. jejuni (D)” (C. jejuni); “E. coli (C)” (E. coli); “E. faecalis (D)” (E. faecalis); “MRSA (D)” (MRSA); “S. epidermidis (D)” (S. epidermidis); “S. pneumoniae (D)” (S. pneumoniae).

On to “PF-618 (KLNTLNKKDNPSLNDQDKNAVLNLLALAK; Peptide with targeting and/or antimicrobial activity)”, for which the “Organism, effect (morphology, biofilm and growth disruption)” value was “E. faecalis (H)” (E. faecalis) and “S. pneumoniae (I)” (S. pneumoniae).

Consider “PF-624 (VFLLDSYCFVKINL; Peptide with targeting and/or antimicrobial activity)”, for which the “Organism, effect (morphology, biofilm and growth disruption)” value is given as “E. coli (C)” (E. coli); “M. luteus (C)” (M. luteus); “MRSA (C)” (MRSA); “P. mirabilis (C)” (P. mirabilis); “S. epidermidis (D)” (S. epidermidis); “S. mutans (D)” (S. mutans). The “Organism, effect (morphology, biofilm and growth disruption)” value (S. pneumoniae) is reported as “S. pneumoniae (D)”.

For “PF-630 (chain 1 IPATPIIHS; chain 2 IPATPIIHS; Peptide with targeting and/or antimicrobial activity)”, the “Organism, effect (morphology, biofilm and growth disruption)” value (MRSA) is reported as “MRSA (M)”.
